As usually defined, the IC50 is the concentration that gives 50% inhibition. In general, MIC refers to the lowest concentration that inhibits growth of the organism. High values mean a less susceptible organism, low ones a more susceptible organism.

Common to all, as to type: cell-based
Assay [1] concerns NS-1 mouse myeloma ATCC TIB-18. Kind of assay: Antitumour resazurin assay, NS-1 mouse myeloma cells. The conditions noted are these: 96 h; for IC50: Mus musculus, read-out: IC50 ± 95% confidence interval, NS-1; for MIC, NS-1: NS-1 mouse myeloma ATCC TIB-18. Here is the method: (§1) To ascertain the bioactivity of all compounds the inhibitory concentrations of 1–6 were measured against bacteria (Bacillus subtilis ATCC 6633 and Staphylococcus aureus ATCC 25923), yeasts (Candida albicans ATCC 10231 and Saccharomyces cerevisiae ATCC 9763), a protozoan (Tritrichomonas foetus), and mammalian cell lines (NS-1 mouse myeloma ATCC TIB-18 and NFF human neonatal foreskin fibroblast cells ATCC PCS-201). […] Given this selectivity, the IC50 values for each compound 1–5versus NS-1, NFF and DU145 human prostate cancer cell ATCC HTB-81 were ascertained by a resazurin-based assay (Table 2). […]
(§2) 1.7. Assays for Biological Activity
(§3) Purified metabolites (1 – 6) were dissolved in DMSO to provide stock solutions (1,000 µg/mL or 40 µg/mL). Bioassays were carried out in 96-well microtitre plates containing two-fold serial dilutions to yield ranges of 10 to 0.005 µg mL-1 or 0.4 to 0.0002 µg mL-1, in 1% DMSO. […]
(§4) To assay antitumour activity, NS -1 ATCC TIB-18 mouse myeloma , DU145 prostate cancer cells (ATCC HTB-81), and NFF (ATCC PCS -201) human neonatal foreskin fibroblast cells were each inoculated in 96 -well microtitre plates (190 µL) at 50,000 cells mL-1 in DMEM (Dulbecco's Modified Eagle Medium + 10% v/v fetal bovine serum (FBS) + 1% v/v penicillin/streptomycin (10,000U mL-1/ 10,000 µg mL-1, Life Technologies Cat. No. 15140122), together with resazurin (250 µg/mL; 10 µL) and incubated at 37 °C (5% CO2). The plates were incubated for 96 h. Absorbance was measured using a Spectromax plate reader (Molecular Devices) at 605 nm for % inhibition, and IC50 values determined.
(In general: Alamar Blue is a resazurin reagent that responds to reducing activity.)

The subject of assay [2] is DU145 human prostate cancer cell ATCC HTB-81. Kind of assay: Antitumour resazurin assay, DU145 prostate cancer cells. The following applies: DU-145, 96 h, read-out: IC50 ± 95% confidence interval, DU145. Here is the method: as §1, §2, §3, §4
In assay [3] the test system is NFF human neonatal foreskin fibroblast cells ATCC PCS-201. Kind of assay: Resazurin assay, NFF human neonatal foreskin fibroblast cells. The conditions noted are these: for IC50: Homo sapiens, Fibroblast, read-out: IC50 ± 95% confidence interval, NFF; for IC50 / MIC, NFF: 96 h; for MIC, NFF: NFF human neonatal foreskin fibroblast ATCC PCS-201. As to the method:
as §1, §2, §3, §4

Assay [4] has as its system Staphylococcus aureus ATCC 25923. Kind of assay: Antibacterial assay, S. aureus. The following applies: ATCC25923, 28 °C, 48 h, read visually. As to the method: as §1, §2
(§5) Purified metabolites (1 – 6) were dissolved in DMSO to provide stock solutions (1,000 µg/mL or 40 µg/mL). Bioassays were carried out in 96-well microtitre plates containing two-fold serial dilutions to yield ranges of 10 to 0.005 µg mL-1 or 0.4 to 0.0002 µg mL-1, in 1% DMSO. Wells containing no test compound as a reference for no inhibition, and uninoculated wells were used as a reference for complete […]
(§6) Antibacterial assays were carried out using Bacillus subtilis ATCC 6633 and Staphylococcus aureus ATCC 25923 as indicative species for Gram-positive activity. A bacterial suspension (50 mL in 250 mL flask) was prepared in nutrient broth media (5.0 g L-1 bacteriological peptone (Bacto), 5.0 g L-1 NaCl (Chem-supply), 2.0 g L-1 yeast extract (Bacto), 1.0 g L-1 beef extract (Bacto)) by cultivation for 24 h at 250 rpm, 28 °C. The suspension was diluted to an absorbance of 0.01 absorbance units per mL [OD400 nm] and aliquots (10 µL) were added to the wells of a 96 -well microtitre plate containing the test compounds dispersed in nutrient broth with resazurin (12.5 µg mL-1). The plates were incubated at 28 °C for 48 h, during which time the positive control wells change colour from a blue to light pink colour. MICs were determined visually. […]

In assay [5] the test system is Bacillus subtilis ATCC 6633. Description: Antibacterial assay, B. subtilis. The following applies: ATCC6633, 28 °C, 48 h, read visually. Here is the method: as §1, §2, §5, §6
Assay [6] has as its system Saccharomyces cerevisiae ATCC 9763. Kind of assay: Antifungal assay, S. cerevisiae. The conditions noted are these: ATCC9763, 24 °C, 48 h, read visually. As to the method:
as §1, §2, §3
(§7) Antifungal assays were carried out using Candida albicans ATCC 10231 and Saccharomyces cerevisiae ATCC 9763 as indicative species for antifungal activity. A yeast suspension (50 mL in 250 mL flask) was prepared in malt extract broth (1.0 g L-1 bacteriological peptone (Bacto), 20.0 g L-1 malt extract […]
(§8) (Bacto), 20 g L-1 glucose (Country Brewers)) by cultivation for 24 h at 250 rpm, 24 °C. The suspension was diluted to an absorbance of 0.005 and 0.03 absorbance units [ OD400] per mL for C. albicans and S. cerevisiae, respectively. Aliquots (20 µL and 30 µL) of C. albicans and S. cerevisiae, respectively were applied to the wells of a 96-well microtitre plate, which contained the test compounds dispersed in malt extract broth containing bromocresol green (50 µg mL-1). The plates were incubated at 24 °C for 48 h during which time the positive control wells change colour from a blue to yellow colour. MIC end points were determined visually. […]
(§9) To assay antitumour activity, NS -1 ATCC TIB-18 mouse myeloma , DU145 prostate cancer cells (ATCC HTB-81), and NFF (ATCC PCS -201) human neonatal foreskin fibroblast cells were each

Assay [7] has as its system Candida albicans ATCC 10231. Kind of assay: Antifungal assay, C. albicans. The conditions noted are these: ATCC10231, 24 °C, 48 h, read visually. As to the method: as §1, §2, §3, §7, §8, §9
The subject of assay [8] is mammalian cell lines. Description: Inhibitory activity against mammalian cell lines (summary across NS-1, DU145, NFF). As to the method: To ascertain the bioactivity of all compounds the inhibitory concentrations of 1–6 were measured against bacteria (Bacillus subtilis ATCC 6633 and Staphylococcus aureus ATCC 25923), yeasts (Candida albicans ATCC 10231 and Saccharomyces cerevisiae ATCC 9763), a protozoan (Tritrichomonas foetus), and mammalian cell lines (NS-1 mouse myeloma ATCC TIB-18 and NFF human neonatal foreskin fibroblast cells ATCC PCS-201). […] Given this selectivity, the IC50 values for each compound 1–5versus NS-1, NFF and DU145 human prostate cancer cell ATCC HTB-81 were ascertained by a resazurin-based assay (Table 2).
as §8
Cat. No. 15140122), 10% v/v new born calf serum (NBCS), Life Technologies). […] T. foetus proliferation was measured at 72 h . […]

Values after ≈ are worked out from the molar mass of the structure shown.

With `CC[C@H](O)[C@@H](C)[C@H]1O[C@@H]1C[C@H](C)/C=C/C=C(\C)[C@H]1OC(=O)C[C@H](O)CC[C@@](C)(O)[C@@H](OC(C)=O)/C=C/[C@@H]1C` [Compound 1, pladienolide B], the figures for the IC50 in assay [1], in assay [2] and in assay [3] were 5.6 ± 0.6 nM, 7.5 ± 3.5 nM and 13 ± 4.1 nM, respectively. Moreover, the “MIC, NS-1” value in assay [1] was determined as 0.001 µg/mL (≈ 0.00186 µM). In addition, in assay [3], the “MIC, NFF” value is 0.013 µg/mL (≈ 0.0242 µM). For the same compound, the MIC in assay [4] was over 10 µg/mL; in assay [5], over 10 µg/mL; in assay [6], over 20 µg/mL; in assay [7] it was over 20 µg/mL.
Take `CC[C@H](O)[C@@H](C)[C@H]1O[C@@H]1C[C@H](C)/C=C/C=C(\C)[C@H]1OC(=O)C[C@H](O)CC[C@H](C)[C@@H](OC(C)=O)/C=C/[C@@H]1C` [Compound 2, 6-deoxypladienolide B]: the IC50 in assay [1] came out at 40.3 ± 3.7 nM; in assay [2], 9.6 ± 5.8 nM; in assay [3] it was 27 ± 14 nM. The “MIC, NS-1” value in assay [1] turned out to be 0.001 µg/mL (≈ 0.00192 µM). Further, the “MIC, NFF” value in assay [3] turned out to be 0.04 µg/mL (≈ 0.0768 µM). Moreover, the MIC was over 10 µg/mL in assay [4], over 10 µg/mL in assay [5], over 20 µg/mL in assay [6] and over 20 µg/mL in assay [7]. The “Fold less effective than 1” value in assay [8] (depending on the cell line) was at most 8 fold.
Take `CC[C@H](O)[C@@H](C)/C=C/C[C@H](C)/C=C/C=C(\C)[C@H]1OC(=O)C[C@H](O)CC[C@@](C)(O)[C@@H](OC(C)=O)/C=C/[C@@H]1C` [Compound 3, Δ18,19-pladienolide B]: the 50% inhibitory concentration (IC50) was over 770 nM in assay [1], 96 ± 27 nM in assay [2] and 319 ± 61 nM in assay [3]. For the same compound, in assay [1], the “MIC, NS-1” value was found to be 0.05 µg/mL (≈ 0.096 µM). The “MIC, NFF” value in assay [3] amounted to 0.6 µg/mL (≈ 1.15 µM). Moreover, the MIC was over 10 µg/mL in assay [4], over 10 µg/mL in assay [5], over 20 µg/mL in assay [6] and over 20 µg/mL in assay [7]. Moreover, in assay [8] (across cell lines), the “IC50 values, times greater than those of 1” value is listed as “up to twenty-five”.
`CC[C@H](O)[C@@H](C)/C=C/C[C@H](C)/C=C/C=C(\C)[C@H]1OC(=O)C[C@H](O)CC[C@H](C)[C@@H](OC(C)=O)/C=C/[C@@H]1C` [Compound 4, Δ18,19-6-deoxypladienolide B]: the IC50 was over 790 nM in assay [1], 264 ± 79 nM in assay [2] and over 790 nM in assay [3]. In addition, in assay [1], the “MIC, NS-1” value worked out at 0.1 µg/mL (≈ 0.198 µM). In assay [3], the “MIC, NFF” value came to 0.4 µg/mL (≈ 0.793 µM). Further, the MIC in assay [4] was over 10 µg/mL; in assay [5], over 10 µg/mL; in assay [6], over 20 µg/mL; in assay [7] it was over 20 µg/mL.
Regarding `CC[C@H](O)[C@@H](C)/C=C/C[C@H](C)/C=C/C=C(\C)[C@H]1OC(=O)C[C@H](O)CC[C@H](C)[C@@H](O)/C=C/[C@@H]1C` [Compound 5, Δ18,19-6-deoxy-7-desacetylpladienolide B], the “MIC, NS-1” value in assay [1] was 0.63 µg/mL (≈ 1.36 µM). For the same compound, the IC50 in assay [3] turned out to be 8100 ± 1800 nM. For the same compound, the “Activity, times lower than 1 against NFF” value in assay [3] (NFF) is over 600 times. Moreover, the “MIC, NFF” value in assay [3] is 10 µg/mL (≈ 21.6 µM). The MIC in assay [4] was over 10 µg/mL; in assay [5], over 10 µg/mL; in assay [6], over 20 µg/mL; in assay [7] it was over 20 µg/mL.
Take `CC[C@@H]1O[C@@H](C[C@H](C)/C=C/C=C(\C)[C@H]2OC(=O)C[C@H](O)CC[C@@](C)(O)[C@@H](OC(C)=O)/C=C/[C@@H]2C)[C@H](O)[C@@H]1C` [Compound 6, isopladienolide B]: the “MIC, NS-1” value in assay [1] came out at 0.08 µg/mL (≈ 0.149 µM). In assay [3], the “MIC, NFF” value amounted to 1.25 µg/mL (≈ 2.33 µM). For the same compound, the MIC was over 10 µg/mL in assay [4], over 10 µg/mL in assay [5], over 20 µg/mL in assay [6] and over 20 µg/mL in assay [7].

(Values after paper PMC8163091, “Production of novel pladienolide analogues through native expression of a pathway-specific activator” (Chemical Science, 2020).)
